Source: ChEMBL document CHEMBL1147101, “Development and persistence of antimicrobial resistance in Pseudomonas aeruginosa: a longitudinal observation in mechanically ventilated patients” (Antimicrob Agents Chemother, 2007)
Active and inactive are the calls of the source. The calls are words filed in the database; no cut-off is given here.

What was measured:
Type in all cases: functional, organism-based
Settings in all cases: Trachea
[1] = test system: Pseudomonas aeruginosa; test: Antimicrobial activity against Pseudomonas aeruginosa 13D11 tracheal isolates from mechanically ventilated chronic respiratory insufficiency patient
[2] = test system: Pseudomonas aeruginosa; test: Antimicrobial activity against Pseudomonas aeruginosa 13E1 tracheal isolates from mechanically ventilated chronic respiratory insufficiency patient
[3] = test system: Pseudomonas aeruginosa; test: Antimicrobial activity against Pseudomonas aeruginosa 15G10 tracheal isolates from mechanically ventilated chronic respiratory insufficiency patient
[4] = test system: Pseudomonas aeruginosa; test: Antimicrobial activity against Pseudomonas aeruginosa 2A1 tracheal isolates from mechanically ventilated tuberculosis patient
[5] = test system: Pseudomonas aeruginosa; test: Antimicrobial activity against Pseudomonas aeruginosa 2B5 tracheal isolates from mechanically ventilated tuberculosis patient
[6] = test system: Pseudomonas aeruginosa; test: Antimicrobial activity against Pseudomonas aeruginosa 13D3 tracheal isolates from mechanically ventilated chronic respiratory insufficiency patient
[7] = test system: Pseudomonas aeruginosa; test: Antimicrobial activity against Pseudomonas aeruginosa 13D6 tracheal isolates from mechanically ventilated chronic respiratory insufficiency patient
[8] = test system: Pseudomonas aeruginosa; test: Antimicrobial activity against Pseudomonas aeruginosa 15H5 tracheal isolates from mechanically ventilated chronic respiratory insufficiency patient
[9] = test system: Pseudomonas aeruginosa; test: Antimicrobial activity against Pseudomonas aeruginosa 16D2 tracheal isolates from mechanically ventilated chronic respiratory insufficiency patient
[10] = test system: Pseudomonas aeruginosa; test: Antimicrobial activity against Pseudomonas aeruginosa 16D5 tracheal isolates from mechanically ventilated chronic respiratory insufficiency patient
[11] = test system: Pseudomonas aeruginosa; test: Antimicrobial activity against Pseudomonas aeruginosa 19B1 tracheal isolates from mechanically ventilated chronic respiratory insufficiency patient
[12] = test system: Pseudomonas aeruginosa; test: Antimicrobial activity against Pseudomonas aeruginosa 19C2 tracheal isolates from mechanically ventilated chronic respiratory insufficiency patient
[13] = test system: Pseudomonas aeruginosa; test: Antimicrobial activity against Pseudomonas aeruginosa 19C7 tracheal isolates from mechanically ventilated chronic respiratory insufficiency patient
[14] = test system: Pseudomonas aeruginosa; test: Antimicrobial activity against Pseudomonas aeruginosa 19C12 tracheal isolates from mechanically ventilated chronic respiratory insufficiency patient
[15] = test system: Pseudomonas aeruginosa; test: Antimicrobial activity against Pseudomonas aeruginosa 19D9 tracheal isolates from mechanically ventilated chronic respiratory insufficiency patient
[16] = test system: Pseudomonas aeruginosa; test: Antimicrobial activity against Pseudomonas aeruginosa 19D10 tracheal isolates from mechanically ventilated chronic respiratory insufficiency patient
[17] = test system: Pseudomonas aeruginosa; test: Antimicrobial activity against Pseudomonas aeruginosa 3E2 tracheal isolates from mechanically ventilated chronic respiratory insufficiency patient
[18] = test system: Pseudomonas aeruginosa; test: Antimicrobial activity against Pseudomonas aeruginosa 9B5 tracheal isolates from mechanically ventilated chronic respiratory insufficiency patient
[19] = test system: Pseudomonas aeruginosa; test: Antimicrobial activity against Pseudomonas aeruginosa 29G7 tracheal isolates from mechanically ventilated chronic respiratory insufficiency patient
[20] = test system: Pseudomonas aeruginosa; test: Antimicrobial activity against Pseudomonas aeruginosa 19E1 tracheal isolates from mechanically ventilated chronic respiratory insufficiency patient
[21] = test system: Pseudomonas aeruginosa; test: Antimicrobial activity against Pseudomonas aeruginosa 19E12 tracheal isolates from mechanically ventilated chronic respiratory insufficiency patient
[22] = test system: Pseudomonas aeruginosa; test: Antimicrobial activity against Pseudomonas aeruginosa 19E9 tracheal isolates from mechanically ventilated chronic respiratory insufficiency patient
[23] = test system: Pseudomonas aeruginosa; test: Antimicrobial activity against Pseudomonas aeruginosa 19F1 tracheal isolates from mechanically ventilated chronic respiratory insufficiency patient
[24] = test system: Pseudomonas aeruginosa; test: Antimicrobial activity against Pseudomonas aeruginosa 19F2 tracheal isolates from mechanically ventilated chronic respiratory insufficiency patient
[25] = test system: Pseudomonas aeruginosa; test: Antimicrobial activity against Pseudomonas aeruginosa 24D5 tracheal isolates from mechanically ventilated chronic respiratory insufficiency patient
[26] = test system: Pseudomonas aeruginosa; test: Antimicrobial activity against Pseudomonas aeruginosa 24E1 tracheal isolates from mechanically ventilated chronic respiratory insufficiency patient
[27] = test system: Pseudomonas aeruginosa; test: Antimicrobial activity against Pseudomonas aeruginosa 24E2 tracheal isolates from mechanically ventilated chronic respiratory insufficiency patient
[28] = test system: Pseudomonas aeruginosa; test: Antimicrobial activity against Pseudomonas aeruginosa 24E6 tracheal isolates from mechanically ventilated chronic respiratory insufficiency patient
[29] = test system: Pseudomonas aeruginosa; test: Antimicrobial activity against Pseudomonas aeruginosa 23C5 tracheal isolates from mechanically ventilated chronic respiratory insufficiency patient
[30] = test system: Pseudomonas aeruginosa; test: Antimicrobial activity against Pseudomonas aeruginosa 24F4 tracheal isolates from mechanically ventilated chronic respiratory insufficiency patient
[31] = test system: Pseudomonas aeruginosa; test: Antimicrobial activity against Pseudomonas aeruginosa P21.21 tracheal isolates from mechanically ventilated tuberculosis patient
[32] = test system: Pseudomonas aeruginosa; test: Antimicrobial activity against Pseudomonas aeruginosa 65.18-1 tracheal isolates from mechanically ventilated tuberculosis patient
[33] = test system: Pseudomonas aeruginosa; test: Antimicrobial activity against Pseudomonas aeruginosa 65.18-2 tracheal isolates from mechanically ventilated tuberculosis patient
[34] = test system: Pseudomonas aeruginosa; test: Antimicrobial activity against Pseudomonas aeruginosa 65.18-3 tracheal isolates from mechanically ventilated tuberculosis patient
[35] = test system: Pseudomonas aeruginosa; test: Antimicrobial activity against Pseudomonas aeruginosa 65.18-4 tracheal isolates from mechanically ventilated tuberculosis patient
[36] = test system: Pseudomonas aeruginosa; test: Antimicrobial activity against Pseudomonas aeruginosa P21.23 tracheal isolates from mechanically ventilated tuberculosis patient
[37] = test system: Pseudomonas aeruginosa; test: Antimicrobial activity against Pseudomonas aeruginosa IC7 tracheal isolates from mechanically ventilated tuberculosis patient
[38] = test system: Pseudomonas aeruginosa; test: Antimicrobial activity against Pseudomonas aeruginosa 65.33-1 tracheal isolates from mechanically ventilated tuberculosis patient
[39] = test system: Pseudomonas aeruginosa; test: Antimicrobial activity against Pseudomonas aeruginosa 65.33-3 tracheal isolates from mechanically ventilated tuberculosis patient
[40] = test system: Pseudomonas aeruginosa; test: Antimicrobial activity against Pseudomonas aeruginosa 65.36-1 tracheal isolates from mechanically ventilated tuberculosis patient
[41] = test system: Pseudomonas aeruginosa; test: Antimicrobial activity against Pseudomonas aeruginosa 65.36-3 tracheal isolates from mechanically ventilated tuberculosis patient
[42] = test system: Pseudomonas aeruginosa; test: Antimicrobial activity against Pseudomonas aeruginosa 65.36-4 tracheal isolates from mechanically ventilated tuberculosis patient
[43] = test system: Pseudomonas aeruginosa; test: Antimicrobial activity against Pseudomonas aeruginosa 65.38-2 tracheal isolates from mechanically ventilated tuberculosis patient
[44] = test system: Pseudomonas aeruginosa; test: Antimicrobial activity against Pseudomonas aeruginosa 24D1 tracheal isolates from mechanically ventilated chronic respiratory insufficiency patient
[45] = test system: Pseudomonas aeruginosa; test: Antimicrobial activity against Pseudomonas aeruginosa IA5 tracheal isolates from mechanically ventilated tuberculosis patient

`C[C@@H](O)[C@H]1C(=O)N2C(C(=O)O)=C(SCCNC=N)C[C@H]12` was tested, and the Activity [1] was “Active”, the Activity [2] was “Active” and the Activity [3] was “Active”. For the same molecule, the Activity [4] was “inactive”, the Activity [5] was “inactive” and the Activity [6] was “Active”. For the same molecule, the Activity [7] was “Active”, the Activity [8] was “Active” and the Activity [9] was “Active”. For the same molecule, the Activity [10] was “Active”, the Activity [11] was “Active” and the Activity [12] was “Active”. For the same molecule, the Activity [13] was “Active”, the Activity [14] was “Active” and the Activity [15] was “Active”. The Activity [16] was “Active”, the Activity [17] was “Active” and the Activity [18] was “Active”. For the same molecule, the Activity [19] was “Active”, the Activity [20] was “Active” and the Activity [21] was “Active”. For the same molecule, the Activity [22] was “Active”, the Antimicrobial activity [23] was “Active” and the Activity [24] was “Active”. For the same molecule, the Activity [25] was “Active”, the Activity [26] was “Active” and the Activity [27] was “Active”. For the same molecule, the Activity [28] was “Active”, the Activity [29] was “Active” and the Activity [30] was “Active”. For the same molecule, the Activity [31] was “Active”, the Activity [32] was “Active” and the Activity [33] was “Active”. The Activity [34] was “inactive”, the Activity [35] was “inactive” and the Activity [36] was “Active”. For the same molecule, the Activity [37] was “inactive”, the Activity [38] was “inactive” and the Activity [39] was “inactive”. For the same molecule, the Activity [40] was “inactive”, the Activity [41] was “inactive” and the Activity [42] was “inactive”. The Activity [43] was “inactive”.
`CC(C)(O/N=C(\C(=O)N[C@@H]1C(=O)N2C(C(=O)[O-])=C(C[n+]3ccccc3)CS[C@H]12)c1csc(N)n1)C(=O)O` was tested, and the Activity [1] was “Active”, the Activity [2] was “Active” and the Activity [3] was “Active”. For the same molecule, the Activity [5] was “Active”, the Activity [6] was “Active” and the Activity [7] was “Active”. The Activity [8] was “Active”, the Activity [9] was “Active” and the Activity [10] was “Active”. The Activity [11] was “Active”, the Activity [12] was “Active” and the Activity [13] was “Active”. For the same molecule, the Activity [14] was “Active”, the Activity [15] was “Active” and the Activity [16] was “Active”. For the same molecule, the Activity [17] was “Active”, the Activity [18] was “Active” and the Activity [19] was “Active”. For the same molecule, the Activity [20] was “Active”, the Activity [21] was “Active” and the Activity [22] was “Active”. The Antimicrobial activity [23] was “Active”, the Activity [24] was “Active” and the Activity [44] was “Active”. For the same molecule, the Activity [25] was “Active”, the Activity [26] was “Active” and the Activity [27] was “Active”. The Activity [28] was “Active”, the Activity [29] was “Active” and the Activity [30] was “Active”. For the same molecule, the Activity [31] was “Active”, the Activity [32] was “Active” and the Activity [33] was “Active”. For the same molecule, the Activity [34] was “Active”, the Activity [35] was “Active” and the Activity [36] was “Active”. For the same molecule, the Activity [45] was “Active”, the Activity [37] was “Active” and the Activity [38] was “Active”. The Activity [40] was “Active”, the Activity [41] was “Active” and the Activity [42] was “inactive”.
